Assay results published in US8598348B2, “Purification of 1-[2-(2,4-dimethylphenylsulfanyl)phenyl]piperazine” (H. Lundbeck A/S, priority 2009, dated 2013).
Structures can show the parent of a compound that is named as a salt.

Columns and labels:
[1] = Water absorption when exposed to high relative humidity; assay type: physicochemical
[2] = judged from DSC and solubility data; as shown in WO 2007/144005; cited from earlier work
[3] = Solubility in water; assay type: physicochemical

## Cc1ccc(Sc2ccccc2N2CCNCC2)c(C)c1 [beta form of the hydrobromide, 1-[2-(2,4-dimethylphenylsulfanyl)phenyl]piperazine-HBr]
[1]
  absorption of water when exposed to high relative humidity: about 0.6%
[2]
  stability among the α-, β- and γ-forms of the HBr salt: most stable form
[3]
  solubility: 1200 µg/mL
